Reference: patent US7282486B2, “Crystal forms of azithromycin” (Pfizer Inc, priority 2001, dated 2007)

Legend:
[1] = Heating of form A: variable temperature powder X-ray diffraction (VT-PXRD) and TGA; format: physicochemical
[2] = Dehydration/desolvation temperatures determined by DSC; format: physicochemical; settings: DSC analysis at 5° C./min from 30-300° C.
Procedure: Dehydration/desolvation temperatures were determined by DSC with a heating rate of 5° C./min.

Question: Which “stability of form when cooled to ambient temperature” value ([1]; cooled to ambient temperature after heating form A to about 90° C.) does the source give for `CCC1OC(=O)C(C)C(O[C@H]2C[C@@](C)(OC)[C@@H](O)C(C)O2)C(C)[C@@H](OC2OC(C)CC(N(C)C)[C@H]2O)C(C)(O)C[C@@H](C)CN(C)[C@H](C)[C@@H](O)[C@]1(C)O` (stereo in doubt) [Form L] here?
Answer: rapidly reverts to form A

Question: For `CC[C@H]1OC(=O)[C@H](C)[C@@H](O[C@H]2C[C@@](C)(OC)[C@@H](O)[C@H](C)O2)[C@H](C)[C@@H](O[C@@H]2O[C@H](C)C[C@H](N(C)C)[C@H]2O)[C@](C)(O)C[C@@H](C)CN(C)[C@H](C)[C@@H](O)[C@]1(C)O` [Form A, azithromycin dihydrate], which “weight loss by TGA” value ([1]; at 90° C.) is on record?
Answer: about 2.5 weight %

Question: And the “temperature of solid-state conversion of form A to form L” value ([1]; heating, VT-PXRD)?
Answer: about 90 °C

Question: Which “broad endotherm (decomposition)” value [2] does the source give for `CCC1OC(=O)C(C)C(O[C@H]2C[C@@](C)(OC)[C@@H](O)C(C)O2)C(C)[C@@H](OC2OC(C)CC(N(C)C)[C@H]2O)[C@@](C)(O)C[C@@H](C)CN(C)[C@H](C)[C@@H](O)[C@]1(C)O` (stereo partly shown) [Form D, azithromycin monohydrate monocyclohexane solvate] here?
Answer: 200-280 °C
